Data taken from article PMC3747139 (PLoS ONE, 2013).
Several values for one entry are separate records, joined by “and”; a condition that tells them apart may be missing. Identical values can stand only once. Marks after values point to notes of the source that are not given here.

How the values were obtained:
HQF DNA [d(T2AG3)4] = assay: SYBR Green melting study with HQF DNA; assay type: binding, human; conditions: for Tm of HQF DNA with ligand: 5 µM HQF DNA, 1 µM ligand, HQF DNA alone 27°C; for Tm: melting temperature of HQF DNA (5 µM) in presence of 1 µM ligand
Description: When quadruplex DNA melts to form ssDNA structure, SG fluorescence intensity gradually reduces as SG has no binding to ssDNA. Each time, 5 µM of HQF DNA [d(T2AG3)4)], 5 µM of dsDNA (prepared by mixing equal concentration of poly-dA-dT and poly-dT-dA), 5 µM ssDNA ( poly dT alone) and 1 µM of each ligand was incubated at 4°C for 16 h, and used for melting studies. […] Affinity, stoichiometry and thermodynamic parameters for quadruplex-ligand complex were studied with 60 µM of ligand and 10 µM of HQF DNA using Microcal VP-ITC (Northampton, MA, USA). Ligand addition to G-quadruplex DNA was made every 180 seconds. Titration experiments were performed thrice and blank correction was made each time to minimize error.

QF DNA = assay: Stop assay (inhibition of in vitro DNA synthesis) with QF DNA; assay type: biochemical; conditions: for ligand concentration range of complete / maximum inhibition of DNA synthesis: 5 µM QF DNA; for percentage of DNA synthesis inhibition with QF DNA: at the respective half maximal inhibitory concentration; for Ki: competitive inhibition against dNTPs, Taq polymerase, read-out: inhibition constant (Ki), Cheng-Prusoff equation
Description: The G-quadruplex structure forming region of QF oligonucleotide is shown in bold letters.
To the PCR reaction mixture (25 µl) containing 10 mM Tris-HCl, pH 8.3, with 50 mM KCl, 1.5 mM Mg(OAc)2, 5 µM of each oligonucleotide, 1 mM dNTPs, 5 units of Taq polymerase, L1, L2, L3 were added at various concentrations (50 µM, 100 µM, 150 µM, 200 µM), and PCR reactions were performed. PCR mixture without any ligand was considered as control. The primers were 5′ end-labelled with [γ-^32P] ATP using 1 µl of polynucleotide kinase and 5 µl of 10× kinase buffer and the contents were incubated at 37°C for 5 min. Stop assay was performed using an ABI thermal cycler. Initial denaturation was done at 94°C for 3 min, followed by 20 repeated cycles each having 94°C for 30 sec, 58°C for 30 sec, and 72°C for 30 sec. After PCR, 5 µl of the amplified product was loaded on a 12% non-denaturing polyacrylamide gel with 1×TBE. The in vitro DNA synthetic band intensity was measured using Bio Rad Gel Doc XR+system (USA). The band intensity of the PCR product obtained with no ligand was taken as control for all the quadruplex forming DNA samples (QF DNA). Percentage of DNA synthesis inhibition was calculated using equation 1, whereas, inhibition constant, Ki (using Cheng-Prusoff equation) for each ligand was calculated by using equation 2. [drawing 2] (1)

B16F10 melanoma cells = assay: Preclinical study: tumor size in tumor-induced mice; assay type: in vivo; conditions: C57BL6/J mice with B16F10 tumor; 200 µM L1, 125 µM L2, 50 µM L3; end of experiment
Description: C57BL6/J mice were used from the animal house facility located at CCMB (Hyderabad, India). All animal experimental studies were carried out in strict accordance with the recommendations in the guide for the care and use of laboratory animals of Centre for Cellular and Molecular Biology (CCMB). All the animal experimental protocols were approved by the Institutional Animal Ethical Committee (IAEC) of Centre for Cellular and Molecular Biology (CCMB with Permit number: CPCSEA 20/1999, Ministry of Environment and Forest, Government of India).The protocol was approved by the Institutional Animal Ethical Committee (IAEC) of CCMB (Protocol number: IAEC 16/2012). All the surgery was performed under sodium pentobarbital anaesthesia, and all efforts were made to minimize suffering. C57BL6/J mice, 6–8 weeks old, were subcutaneously injected with 2×10^5 B16F10 melanoma cells, in the […] region. After the tumor attained a size of 500–1000 mm^3 (≈9 days following cancer cell implantation), mice were grouped and treated as follows.
Group (i) was treated with vehicle control (4 mice), group (ii) with 200 µM of L1 (4 mice), group (iii) with 125 µM of L2 (4 mice) and group (iv) with 50 µM of L3 (4 mice). These experiments were repeated thrice and mean values were considered. Size of tumor was measured every day at a fixed time. The tumor sizes were calculated using the formula (0.5 ab^2), where ‘a’ was the largest dimension and ‘b’ was the smallest dimension of the tumor. The experiment was terminated when the average tumor volume of the control/treated group was 10000–12000 mm^3.

B16F10 = assay: Cell count assay (trypan blue); assay type: cell-based, human; conditions: for Number of viable cells after 24 h of ligand treatment: B16F10, 24 h; for Number of viable cells after 48 h of ligand treatment: B16F10, 48 h
Description: (§1) Normal and tumor cell lines were seeded at 20000–40000 cells/cm^2 with 0.2 mL/cm^2 media and incubated for 48 h at 37°C, 6% CO2, 95% relative humidity. […] After 24 h and 48 h of incubation, cells were washed with 300 µl PBS or 0.02% EDTA, trypsinized, followed by harvesting at 37°C. 200 µl cell suspension was transferred into 1.5 ml microcentrifuge tube. To the cell suspension, 300 µl PBS followed by 500 µl of 0.4% trypan blue solution was added. To get the homogenised solution, the microcentrifuge tube was gently tapped for 5 min, 20 µl of cell suspension was loaded in to a chamber of the haemocytometer.

A549 = assay: Cell count assay (trypan blue); assay type: cell-based, human; conditions: for Number of viable cells after 24 h of ligand treatment: A549, 24 h; for Number of viable cells after 48 h of ligand treatment: A549, 48 h;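 as to Number of viable cells after 24 h of ligand treatment: each ligand tested at its own IC50 concentration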
Description: as §1

MCF-7 = assay: Cell count assay (trypan blue); assay type: cell-based, human; conditions: for Number of viable cells after 24 h of ligand treatment: MCF-7, 24 h; for Number of viable cells after 48 h of ligand treatment: MCF-7, 48 h;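 as to Number of viable cells after 48 h of ligand treatment: each ligand tested at its own IC50 concentration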
Description: as §1

[1] = test system: HQF DNA (human quadruplex forming DNA), d(TTAGGG)4 (DNA, G4) TTAGGGTTAGGGTTAGGGTTAGGG; assay: SYBR Green fluorescence melting; conditions: 1 µM ligand, 5 µM DNA, melting buffer not stated
B16F10 cells = assay: Flow cytometry cell cycle analysis (PI); assay type: cell-based, human; conditions: for cells in G0/G1 phase / cells in G2/M phase / cells in S phase / cells in Sub G1 phase: 200 µM L1, 125 µM L2, 50 µM L3, 3 h
Description: Since MTT and cell culture assays yielded encouraging results with B16F10 cells they were used for confocal and flow cytometry experiments. After 90% confluence, the cells were treated with 200 µM, 125 µM and 50 µM of L1, L2, L3 respectively, for 3 h. 1×10^6 cells were washed with 2× binding buffer and resuspended in 100 µl binding buffer and Annexin-V-FITC (1.0 µg). The cells were then incubated at room temperature for 10 min, followed by the addition of 400 µl of binding buffer containing 1 µl of Propidium Iodide (PI). Stained cells were analyzed using FACS Calibur Flow Cytometer from B.D. Biosceinces (USA). Annexin-V-FITC and PI labelled cells were excited using 488 nm solid-state laser and fluorescence emission intensity was captured using 530/30 and 585/42 band pass filters respectively.

Compound | Tm of HQF DNA with ligand (HQF DNA [d(T2AG3)4]) [°C] | Tm (HQF DNA [d(T2AG3)4]) | ligand concentration range of complete / maximum inhibition of DNA synthesis (QF DNA) [µM] | percentage of DNA synthesis inhibition with QF DNA (QF DNA) [%] | Ki (QF DNA) [µM] | tumor size (B16F10 melanoma cells) | Number of viable cells after 24 h of ligand treatment (B16F10) | Number of viable cells after 48 h of ligand treatment (B16F10) | Number of viable cells after 24 h of ligand treatment (A549) | Number of viable cells after 48 h of ligand treatment (A549) | Number of viable cells after 24 h of ligand treatment (MCF-7) | Number of viable cells after 48 h of ligand treatment (MCF-7) | ΔTm ([1]; derived from two Tm (28 and 27 °C)) [°C] | cells in G0/G1 phase (B16F10 cells) | cells in G2/M phase (B16F10 cells) | cells in S phase (B16F10 cells) | cells in Sub G1 phase (B16F10 cells) | ΔTm ([1]; derived from two Tm (42 and 27 °C)) [°C] | ΔTm ([1]; derived from two Tm (52 and 27 °C)) [°C] | subG1 cell population enhanced compared to other nucleoside ligands (B16F10 cells; L3 versus L1 and L2)
Cc1cn([C@H]2C[C@H](N=[N+]=[N-])[C@@H](CO)O2)c(=O)[nH]c1=O [Ligand L1, 1-(4-azido 5-(hydroxylmethyl)tetrahydrofuran-2-yl)-5-methyl pyrimidi-ne-2,4(1H,3H)-dione, reference compound] | 28 | 28 ^o C | 150 to 200 | 84 | 2.94 | 6000–8000 mm^3 | ++ (Viable cells in the range of 50%–60%) | +++ (Viable cells which are equal or less than 30%) | + (Viable cells in the range of 80%–90%) | ++ (Viable cells in the range of 50%–60%) | + (Viable cells in the range of 80%–90%) | ++ (Viable cells in the range of 50%–60%) | 1 | 26.94% | 5.58% and 05.58% | 06.38% | 61.10% |  |  | 
Cc1cn([C@H]2C[C@H](n3cc(-c4ccccc4)nn3)[C@@H](CO)O2)c(=O)[nH]c1=O [Ligand L2] | 42 | 42 ^o C | 150 to 200 | 91 | 1.84 | 6000–8000 mm^3 | ++ (Viable cells in the range of 50%–60%) | +++ (Viable cells which are equal or less than 30%) | ++/++ (Viable cells in the range of 50%–60%) | ++/++ (Viable cells in the range of 50%–60%) | + (Viable cells in the range of 80%–90%) | ++ (Viable cells in the range of 50%–60%) |  | 07.78% | 1.93% and 01.93% | 8.77% and 08.77% | 81.5% and 81.52% | 15 |  | 
Cc1cn([C@H]2C[C@H](n3cc(-c4ccc(Cl)cc4)nn3)[C@@H](CO)O2)c(=O)[nH]c1=O [Ligand L3, 1-(4-(4-(4-chlorophenly)-1H-1,2,3-triazole-1-yl)-5-(hydroxymethyl)tetrahydrofuran-2-yl)-5-methylpyrimidine-2,3(1H,3H)-dione] | 52 | 52 ^o C | 50 to 100 | 94 | 0.735 | ≈ 4500 mm^3 | ++ (Viable cells in the range of 50%–60%) | +++ (Viable cells which are equal or less than 30%) | ++ (Viable cells in the range of 50%–60%) | +++ (Viable cells which are equal or less than 30%) | ++/++ (Viable cells in the range of 50%–60%) | ++/++ (Viable cells in the range of 50%–60%) |  | 4.46% and 04.46% | 0.91% and 00.91% | 5.36% and 05.36% | 89.27% |  | 25 | 10–30%
